{"source": "patent US20020041848A1", "about": "“Chemically Specific Imaging Of Tissue” (priority 1999, published 2002)", "key": {"human finger tip": {"tested_on": "human finger tip", "conditions": "in vivo, 5 min", "procedure": "Raman spectra were collected from a human finger tip irradiated with a near-infrared laser beam using conventional equipment, including a light collection and analysis system. Test agents were applied to the finger tip and allowed to penetrate the tissue for 5 minutes before rinsing the finger tip with acetone."}, "lab rats": {"tested_on": "lab rats", "conditions": "cited from earlier work"}}}
{"smiles": "[2H]C([2H])([2H])C([2H])([2H])C([2H])([2H])C([2H])([2H])C([2H])([2H])C([2H])([2H])C([2H])([2H])C([2H])([2H])C([2H])([2H])C([2H])([2H])C([2H])([2H])C([2H])([2H])C([2H])([2H])C([2H])([2H])C([2H])([2H])C([2H])([2H])C([2H])([2H])C(=O)O", "note": "[stearic acid-d35]", "values": [{"measurement": "depth of penetration indicated by persistence of peak near 2200 cm^-1", "setting": "human finger tip", "result": "1-2 mm"}]}
{"smiles": "[2H]O[2H]", "note": "[D2O]", "values": [{"measurement": "symptoms at about double the 10-15% body water replacement", "setting": "lab rats; lab rats, continuous regimen of D2O", "result": "severe"}, {"measurement": "share of total body water weight replaced by D2O below which there are no signs of ingestion or poisoning", "setting": "lab rats; rat, in vivo", "result": "10-15%"}]}
